Assay results from publication PMC11696576, “Next generation thiazolyl ketone inhibitors of cytosolic phospholipase A2 α for targeted cancer therapy” (Nature Communications, 2025).
Several values for one entry are separate records, joined by “and”; a condition that tells them apart may be missing. Identical values can stand only once.

Legend:
whole blood = test: eicosanoid release from LPS-stimulated whole blood; assay type: cell-based, human; set-up: LTB4 / 5-HETE / 11,12-EET / 12-HETE: unit not given here; conditions: for 15-HETE level, whole blood / PGE2 level, whole blood / TxB2 level, whole blood: individual replicate
Excerpt: In whole blood, bacterial lipopolysaccharide (LPS) stimulated the release of PGE2, thromboxane B2 (TXB2), and 15-hydroxyeicosatetraenoic acid (HETE). […] The levels of leukotriene B4 (LTB4), 12-HETE, 5-HETE and 11,12-epoxyeicosatrienoic acid (EET) were not affected by LPS stimulation but increased when exogenous AA was included, irrespective of the presence of GK420 (Fig. S1a).
Fig. 3 Ex vivo suppression of eicosanoid production by GK420. a Eicosanoid levels (pmol/mL) in the plasma of whole blood pretreated with vehicle (DMSO), 3, 10 or 30 µM GK420,) 10 µM arachidonyl trifluoromethyl ketone (ATK), or 1 μM indomethacin (Indo) before stimulation with 1 µg/mL LPS for 24 h. […] All box and whisker plots show the mean (center line), stdev (box), and min and max values (whiskers) from 4 biological replicates. P-values were determined using RM-one way ANOVA with Dunnett’s correction for multiple comparisons.
Aliquots of 0.4 mL of heparinized whole blood were mixed with 1.6 mL of serum-free RPMI cultivation medium with- or without indomethacin (# I7378, Sigma-Aldrich), GK420, or arachidonyl trifluoromethyl ketone (ATK) (Cayman #62120), prior to the addition of lipopolysaccharides (LPS) (1 μg/mL) to activate the cPLA2α enzyme (LPS was from E. coli 026:B6 γ-irradiated, #L2654, Sigma-Aldrich). Exogenous arachidonic acid (5–10 µM) (#3555, Sigma-Aldrich) was added after 23.5 h, for the final 30 mins of the 24 h stimulation. Following treatment (24 h, 37 °C, 5% CO2), the diluted blood was centrifuged (5992 × g for 10 min at 4 °C) to isolate the plasma from the cell fraction. Plasma samples were stored at −80 °C until analysis. Samples were analyzed at the Lipid Maps Consortium, UCSD according to the standard methods. 200 µL of sample was subjected to solid phase extraction of the eicosanoids using the StrataX solid phase extraction columns from Phenomenex and analyzed by UHPLC-MS/MS using full standards mix.

CD3+ T-cells = test: viability of healthy T-cells, propidium iodide exclusion; assay type: cell-based
Experimental: (§1) Data are the mean ± stdev of 3 biological replicates. […] Data are the mean ± stdev of 3 biological replicates.
Propidium iodide exclusion was used to assess cell death by flow cytometry. After treatment, the cells were washed once with PBS and stained with 1.4 μg/mL propidium iodide (PI) for 5 min before quantification of PI negative and positive cells using a CytoFLEX flow cytometer (California, United States). An example of the gating strategy to assess PI staining can be found in Fig. S8c. […]
The propidium iodide exclusion assay was used to assess vi-ability of ungated PBMCs treated with AVX420 at the indicated doses for 24 hours .
Data are the mean ±stdev from 8 biological replicates (1-16 µM) and 5 biological rep- […]
iodide exclusion in CD3+ lymphocytes (T-cells). Cells appearing in the bottom right quadrant are PI-negative (live) T-cells while cells in the top right quadrant are PI-posi- […]
(1 picture or pasted object on this page, not shown here)

Jurkat E6.1 cells = test: intracellular ROS, ROS-red staining and flow cytometry, Jurkat E6.1; assay type: cell-based, human; set-up: ROS Negative Cells / ROS Negative Cells (Figure S9 a) / ROS Negative Cells (Figure S9c): unit not given here; conditions: for ROS Negative Cells (Figure S9 a) / ROS Positive Cells (Figure S9 a): replicates; for ROS Negative Cells (Figure S9 a) / ROS Positive Cells (Figure S9 a) / ROS Negative Cells / ROS Positive Cells: listed as AVX420; for ROS Negative Cells (Figure S9c) / ROS Positive Cells (Figure S9c): rep1, rep2
Experimental: as §1
Rather, when combined with AVX420, exogenous AA augmented cell death (Fig. 6e). […] The response occurred within 1 h, peaked at 8–12 h, and preceded the loss of cell viability (Fig. S9a, b).
After treatment, cells were stained with cellular ROS Assay Kit (Cat. No. ab186029; Abcam, Cambridge, United Kingdom) following the manufacturer’s instructions, and ROS-positive cells were quantified by flow cytometry using either the NovoCyte flow cytometer, and Novoexpress Software v1.5.0 from Agilent Technologies (Santa Clara, USA) or the CytoFLEX flow cytometer and CytExpert analysis software v 2.5 from Beckman Coulter (California, United States). An example showing the gating strategy used to assess ROS-Red staining is found in Fig. S9d.

secreted GV sPLA2 = molecular target: T1, secreted GV sPLA2 (Homo sapiens, UniProt P39877); set-up: method as in PMID 25152071; conditions: 0.091 mole fraction; previously published data ref 19; cited from earlier work
T1 sequence (P39877 21-138): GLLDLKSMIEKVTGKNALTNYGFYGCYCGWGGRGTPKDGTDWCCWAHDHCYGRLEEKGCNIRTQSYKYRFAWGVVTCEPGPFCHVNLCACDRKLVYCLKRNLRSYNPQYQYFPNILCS

[1] = 10 uM + LPS + AA, listed as AVX420
[2] = Figure 6c, 32 µM, listed as AVX420

CCCCCCCOc1ccc(OCC(=O)c2nc(C(=O)OC)cs2)cc1 [GK420]
15-HETE level, whole blood (whole blood; 3 uM + LPS): 0.23 pmol/mL and 1.1 pmol/mL and 0.41 pmol/mL and 0.42 pmol/mL
PGE2 level, whole blood (whole blood; 3 uM + LPS): 0.2 pmol/mL and 2.5 pmol/mL and 0.7 pmol/mL and 0.9 pmol/mL
TxB2 level, whole blood (whole blood; 3 uM + LPS): 1 pmol/mL and 10.1 pmol/mL and 3.2 pmol/mL and 4.5 pmol/mL
15-HETE level, whole blood (whole blood; 10 uM + LPS + AA): 68.15 pmol/mL and 72.88 pmol/mL and 78.71 pmol/mL and 78.11 pmol/mL
PGE2 level, whole blood (whole blood; 10 uM + LPS + AA): 11.8 pmol/mL and 18.9 pmol/mL and 15.6 pmol/mL and 18.2 pmol/mL
TxB2 level, whole blood (whole blood; 10 uM + LPS + AA): 14.6 pmol/mL and 27.5 pmol/mL and 24.1 pmol/mL and 18.1 pmol/mL
5-HETE (whole blood; [1]): 59.11 and 60.82 and 63.51 and 71.56
11,12-EET (whole blood; [1]): 12.46 and 11.85 and 10.02 and 12.34
12-HETE (whole blood; [1]): 73 and 139.7 and 83.5 and 77.9
LTB4 (whole blood; [1]): 0.6 and 0.8
15-HETE level, whole blood (whole blood; 10 uM + LPS): 0.65 pmol/mL and 0.26 pmol/mL and 0.51 pmol/mL and 0.31 pmol/mL
PGE2 level, whole blood (whole blood; 10 uM + LPS): 1.7 pmol/mL and 0.3 pmol/mL and 0.7 pmol/mL and 0.1 pmol/mL
TxB2 level, whole blood (whole blood; 10 uM + LPS): 8.4 pmol/mL and 1.9 pmol/mL and 2.9 pmol/mL and 0.8 pmol/mL
15-HETE level, whole blood (whole blood; 30 uM + LPS): 0.31 pmol/ml (2×) and 0.35 pmol/ml and 0.42 pmol/ml
PGE2 level, whole blood (whole blood; 30 uM + LPS): 0.05 pmol/ml and 0.4 pmol/ml and 0.1 pmol/ml (2×)
TxB2 level, whole blood (whole blood; 30 uM + LPS): 0.2 pmol/mL and 3.4 pmol/mL and 1.2 pmol/mL and 1.5 pmol/mL
production of PGE2, TXB2 and 15-HETE (whole blood; whole blood, LPS): suppressed their production
production of PGE2, TXB2 and 15-HETE with excess free AA (whole blood; whole blood, LPS + exogenous free AA): no effect
PI Negative (CD3+ T-cells; Figure 6c, 2 µM, listed as AVX420): 96 and 98 and 95 and 91 and 89 and 97
PI Negative (CD3+ T-cells; Figure 6c, 8 µM, listed as AVX420): 96 and 98 and 94 and 90 and 87 and 95 and 93
PI Negative (CD3+ T-cells; Figure 6c, 16 µM, listed as AVX420): 96 and 98 and 94 and 90 and 84 and 91
PI Negative (CD3+ T-cells; [2]): 92 and 94 and 89 and 91 and 90
PI Positive (CD3+ T-cells; [2]): 6 and 11 and 9 and 10 and 8
effect on healthy CD3+ T-cells (CD3+ T-cells; up to a maximum dose tested of 32 µM): no effect
ROS Negative Cells (Figure S9 a) (Jurkat E6.1 cells; 1h): 68 and 69 and 77 and 81
ROS Positive Cells (Figure S9 a) (Jurkat E6.1 cells; 1h): 31 and 23 and 19 and 32
ROS Negative Cells (Figure S9 a) (Jurkat E6.1 cells; 2h): 46 (2×) and 47 (2×) and 51 and 54 and 50 and 48
ROS Positive Cells (Figure S9 a) (Jurkat E6.1 cells; 2h): 53 (2×) and 49 and 46 and 50 and 54 (2×) and 52
ROS Negative Cells (Figure S9 a) (Jurkat E6.1 cells; 4h): 33 (2×) and 32 and 37 and 30 and 29 and 34 (2×)
ROS Positive Cells (Figure S9 a) (Jurkat E6.1 cells; 4h): 67 (2×) and 68 and 63 and 70 and 71 and 66 (2×)
ROS Negative Cells (Figure S9 a) (Jurkat E6.1 cells; 8h): 26 and 27
ROS Positive Cells (Figure S9 a) (Jurkat E6.1 cells; 8h): 73 and 74
ROS Negative Cells (Figure S9 a) (Jurkat E6.1 cells; 12h): 18 and 19 and 21 and 16
ROS Positive Cells (Figure S9 a) (Jurkat E6.1 cells; 12h): 81 and 79 and 84 and 82
ROS Negative Cells (Figure S9 a) (Jurkat E6.1 cells; 16h): 21 and 22 and 18 (2×) and 17 and 19
ROS Positive Cells (Figure S9 a) (Jurkat E6.1 cells; 16h): 78 and 82 (2×) and 83 and 81 and 79
ROS Negative Cells (Figure S9 a) (Jurkat E6.1 cells; 20h): 14 and 13 and 15
ROS Positive Cells (Figure S9 a) (Jurkat E6.1 cells; 20h): 87 and 85 and 86
ROS Negative Cells (Figure S9 a) (Jurkat E6.1 cells; 24h): 13 and 15 and 16
ROS Positive Cells (Figure S9 a) (Jurkat E6.1 cells; 24h): 85 and 84 and 87
ROS Negative Cells (Figure S9c) (Jurkat E6.1 cells; AVX420 0.5 µM + AA 20 µM): 80 and 83
ROS Positive Cells (Figure S9c) (Jurkat E6.1 cells; AVX420 0.5 µM + AA 20 µM): 20 and 17
ROS Negative Cells (Figure S9c) (Jurkat E6.1 cells; AVX420 0.5 µM + Lip 5 µM): 98 and 99
ROS Positive Cells (Figure S9c) (Jurkat E6.1 cells; AVX420 0.5 µM + Lip 5 µM): 2 and 1
ROS Negative Cells (Figure S9c) (Jurkat E6.1 cells; AVX420 0.5 µM): 80 and 76
ROS Positive Cells (Figure S9c) (Jurkat E6.1 cells; AVX420 0.5 µM): 20 and 24
ROS Negative Cells (Jurkat E6.1 cells; Jurkat E6.1, 0.25 µM): 78 and 75 and 60 and 66
ROS Positive Cells (Jurkat E6.1 cells; Jurkat E6.1, 0.25 µM): 22 and 25 and 40 and 34
ROS Negative Cells (Jurkat E6.1 cells; Jurkat E6.1, 0.5 µM): 46 and 45 and 51
ROS Positive Cells (Jurkat E6.1 cells; Jurkat E6.1, 0.5 µM): 54 and 55 and 49
ROS Negative Cells (Jurkat E6.1 cells; Jurkat E6.1, 1 µM): 19 and 21 and 30 and 22
ROS Positive Cells (Jurkat E6.1 cells; Jurkat E6.1, 1 µM): 81 and 79 and 70 and 78
ROS Positive Cells (Jurkat E6.1 cells; Jurkat E6.1, 2 µM): 95 and 93 and 89 and 92
intracellular ROS (iROS) (Jurkat E6.1 cells; Jurkat E6.1, 4 h): dose-dependent increase

CCCCCCCCc1ccc(OCC(=O)c2nc(C(=O)OC)cs2)cc1 [GK470]
GV sPLA2 % Inhib (secreted GV sPLA2): 41%
